# Several values for one entry are separate records, joined by “and”; a condition that tells them apart may be missing. Equal entries are not always repeated. Where two headings read alike, the source gives them in different places.
# Columns and labels:
# NF2 VSs = settings: NF2 VS patients; cited from earlier work
# primary VS cells [1] = test: TUNEL cell death assay in primary VS cultures; format: cell-based, human; settings: 48 hours
# Description: Rate of apoptosis in 6 VS cultures was assessed and correlated with tumor growth in vivo and tumor volume. […] Apoptosis was measured using terminal deoxynucleotidyl transferase dUTP nick end labeling (TUNEL, Roche Applied Sciences, NY) following manufacturer's instructions. Briefly, immunofluorescence protocol was followed as described under ‘Immunofluorescence,’ until fixations, then the cells were washed with PBS thrice and incubated in 1% Triton-X for 10 minutes on shaker. The cells were washed with PBS once and incubated in TUNEL mix for 1 hour at 37° C., then for 30 minutes at RT on shaker. The cells were then incubated in rhodamine phalloidin (Life Technologies, NY, 1:40) and Hoechst stain for 20 minutes, washed with PBS thrice and mounted onto slides for imaging. TUNEL and Hoechst stained nuclei were counted in >3 fields and the ratio of TUNEL positive to Hoechst positive nuclei was used to determine apoptosis rate in vitro. A positive control of 10 minutes-DNAse (Roche Applied Sciences, NY) treatment prior to TUNEL labeling was utilized.
# (§1) For siRNA treatment, cultured primary VS cells or HEI-193 cells were placed in antibiotic and serum free media overnight. The next day, the cells were incubated with Life Technologies siRNAs targeting NF-κB genes RELA and NF-κB1, with control cells being treated with vehicle only (Lipofectamine RNAiMax), for 5 days. Some cultures were also incubated with a fluorescent random Oligo (Life Technologies) along with vehicle to assess transfection efficiency. siRNA experiments were performed in antibiotic and serum free media.
# BAY11 or curcumin, diluted in 100% DMSO, were mixed to the accurate concentrations in warmed media and applied to the cultures (with DMSO concentration in media being 1% maximum), alongside a no-treatment control receiving media alone with appropriate corresponding DMSO levels.
# After 48 hours of treatment, primary VS and Schwann cultures were fixed for BrdU staining, to visualize proliferation, or TUNEL staining, to visualize cell death.
# After 48 hours of treatment with salicylates, primary VS and SC cultures were fixed for BrdU staining, to visualize proliferation, or TUNEL staining, to visualize cell death.
# primary VS cells [2] = test: BrdU proliferation assay in primary VS cultures; format: cell-based, human; settings: 48 hours
# Description: Proliferation rate of 12 VS cultures was assessed and correlated with the tumor volume in the latest gadolinium enhanced T1-weighted MRI scan prior to surgical resection, and with tumor growth in vivo, measured as changes in the tumor's volume over time calculated from serial MRI scans. Tumor growth was standardized by dividing the growth rate by the initial tumor volume. Separate analyses were performed for solid tumors, which generally account for approximately 96% of VSs (Charabi et al., 1994), versus all studied tumors, which included 4 out of 13 total tumors with a visible cystic component, because cystic components could misrepresent true tumor volume (Charabi et al., 1994). To determine the level of cell proliferation in the cultures, Bromodeoxyuridine (BrdU) was added to the cells at a concentration of 10 μg/ml 20 hours before the cells were fixed. The cells were kept in the dark after the addition of BrdU Immunofluorescence protocol was followed as described under ‘Immunofluorescence,’ and cell and nuclear membranes were permeablized by incubation in 1% Triton-X for 10 minutes and by incubation in 2N Hydrochloric acid for 20 minutes, respectively, after fixation. Primary antibody against BrdU (AbD Serotec, NC, 1:200) and anti-rat IgG (Life Technologies, NY, 1:1000) were used. BrdU- and Hoechst-stained nuclei were counted in 3-5 fields and the ratio of BrdU positive to Hoechst positive nuclei was used to determine the proliferation rate in vitro. […]
# (§2) Cultured human primary VS cells, primary SCs and HEI-193 cells were treated with NF-κB inhibitors BAY11-7082 (BAY11) or curcumin for 48 hours (Santa Cruz Biotechnology). BAY11 or curcumin, diluted in 100% DMSO, were mixed to the accurate concentrations in warmed media and applied to the cultures (with DMSO concentration in media being 1% maximum), alongside a no-treatment control receiving media alone with appropriate corresponding DMSO levels. Experiments were performed in media fortified with antibiotics and serum (same formulation as described in Example 1 for culturing cells).
# (§3) After 48 hours of treatment, primary VS and Schwann cultures were fixed for BrdU staining, to visualize proliferation, or TUNEL staining, to visualize cell death. The same methodology as described in Example 1 was utilized. Cleaved caspase 3 staining, another apoptosis marker to reinforce findings using TUNEL, was conducted using an antibody against cleaved caspase 3 following the ‘immunofluorescence’ protocol outlined in Example 1.
# (§4) The cultures were incubated with the drugs for 48 hours. To label proliferating cells, BrdU was added 20 hours before fixation. pH was measured in the media after drug addition to ensure no significant deviations.
# (§5) After 48 hours of treatment with salicylates, primary VS and SC cultures were fixed for BrdU staining, to visualize proliferation, or TUNEL staining, to visualize cell death. The same methodology as described in Example 1 was utilized.
# To understand cross-talk between HGF and VEGF-A pathway, cultured VS cells were incubated with Life Technologies silencer select siRNAs targeting VEGFA (s461) or MET (s8700). To understand whether HGF signaling contributed to VS proliferation, cultured VS cells were treated with MET inhibitor SU11274 (Sigma-Aldrich, MO, #S9820). Seventy-two hours after siRNA treatment or 12 hours after treatment with SU11274 (2 μM), cells were incubated with 10 μg/mL BrdU (Life Technologies, NY, # B23151) for 20 hours before fixation.
# COX-2 = settings: 48 hours, VS culture media
# Description: Prostaglandin (PTG) E2 was assayed in the media of VS cultures using the Prostaglandin E2 Parameter Assay Kit (R&D Systems, KGE004B). The media was collected after 48 hours of treatment from non-treated and treated cultured cells. Manufacturer's instructions were closely followed.
# as §4
# primary SCs [3] = test: BrdU proliferation assay in primary Schwann cell cultures; format: cell-based, human; settings: 48 hours
# Description: (§6) Proliferation rate of 12 VS cultures was assessed and correlated with the tumor volume in the latest gadolinium enhanced T1-weighted MRI scan prior to surgical resection, and with tumor growth in vivo, measured as changes in the tumor's volume over time calculated from serial MRI scans. Tumor growth was standardized by dividing the growth rate by the initial tumor volume. Separate analyses were performed for solid tumors, which generally account for approximately 96% of VSs (Charabi et al., 1994), versus all studied tumors, which included 4 out of 13 total tumors with a visible cystic component, because cystic components could misrepresent true tumor volume (Charabi et al., 1994). To determine the level of cell proliferation in the cultures, Bromodeoxyuridine (BrdU) was added to the cells at a concentration of 10 μg/ml 20 hours before the cells were fixed. The cells were kept in the dark after the addition of BrdU Immunofluorescence protocol was followed as described under ‘Immunofluorescence,’ and cell and nuclear membranes were permeablized by incubation in 1% Triton-X for 10 minutes and by incubation in 2N Hydrochloric acid for 20 minutes, respectively, after fixation. Primary antibody against BrdU (AbD Serotec, NC, 1:200) and anti-rat IgG (Life Technologies, NY, 1:1000) were used. BrdU- and Hoechst-stained nuclei were counted in 3-5 fields and the ratio of BrdU positive to Hoechst positive nuclei was used to determine the proliferation rate in vitro.
# as §2, §3, §4, §5
# HEI-193 NF2 VS cell line [4] = test: TUNEL cell death assay in HEI-193 cells; format: cell-based, human; settings: 48 hours
# Description: (§7) Rate of apoptosis in 6 VS cultures was assessed and correlated with tumor growth in vivo and tumor volume. Two out of the six VS had cystic components. Apoptosis was measured using terminal deoxynucleotidyl transferase dUTP nick end labeling (TUNEL, Roche Applied Sciences, NY) following manufacturer's instructions. Briefly, immunofluorescence protocol was followed as described under ‘Immunofluorescence,’ until fixations, then the cells were washed with PBS thrice and incubated in 1% Triton-X for 10 minutes on shaker. The cells were washed with PBS once and incubated in TUNEL mix for 1 hour at 37° C., then for 30 minutes at RT on shaker. The cells were then incubated in rhodamine phalloidin (Life Technologies, NY, 1:40) and Hoechst stain for 20 minutes, washed with PBS thrice and mounted onto slides for imaging. TUNEL and Hoechst stained nuclei were counted in >3 fields and the ratio of TUNEL positive to Hoechst positive nuclei was used to determine apoptosis rate in vitro. A positive control of 10 minutes-DNAse (Roche Applied Sciences, NY) treatment prior to TUNEL labeling was utilized.
# (§8) The same methodology as described in Example 1 was utilized for primary VS and SC cultures. Cultures were treated with NF-κB inhibitors approximately after 2 weeks of culturing. HEI-193 cell line was a gift from Dr. Giovannini at the House Ear Institute (Hung et al., 2002a).
# as §1, §2, §3
# HEI-193 NF2 VS cell line [5] = test: BrdU proliferation assay in HEI-193 cells; format: cell-based, human; settings: 48 hours
# Description: as §6, §8, §1, §2, §3
# primary SCs [6] = test: TUNEL cell death assay in primary Schwann cell cultures; format: cell-based, human; settings: human, 48 h
# Description: as §7, §2, §3
molecule,measurement,setting,value
"CS(=O)(=O)CCNCc1ccc(-c2ccc3ncnc(Nc4ccc(OCc5cccc(F)c5)c(Cl)c4)c3c2)o1 [Lapatinib, lapatinib]",patients with decrease in tumor size / volume,NF2 VSs,approximately 24%
same,patients with hearing improvement,NF2 VSs,~31%
"O=C([O-])c1ccccc1O.[Na+] [NaSal, sodium salicylate]",cell death rate,primary VS cells [1]; 5 mM,3.3±2.3%
same,"proliferation, of the NT cells",primary VS cells [2]; 1 mM,18% and 18.9±5.0%
same,"proliferation, of the NT cells",primary VS cells [2]; 5 mM,25.4±11.1%
same,"proliferation, of the NT cells",primary VS cells [2]; 10 mM,20.6±11.2%
same,"secreted PTG levels, of NT cells",COX-2; 1 mM,3.8%
same,"secreted PTG levels, of NT cells",COX-2; 5 mM,32.2%
same,"proliferation, of the NT cells",primary SCs [3]; 5 mM,104.4±13.2%
same,"proliferation, of the NT cells",primary SCs [3]; 10 mM,64.9±18.9%
COc1cc(/C=C/C(=O)CC(=O)/C=C/c2ccc(O)c(OC)c2)ccc1O [curcumin],cell death rate,primary VS cells [1]; 5 μM,11.6±6.3%
same,cell death rate,primary VS cells [1]; 20 μM,1.8±1.0%
same,cell death rate,primary VS cells [1]; 50 μM,73.3±6.3%
same,cell death rate,HEI-193 NF2 VS cell line [4]; 5 μM,0.3±0.1%
same,cell death rate,HEI-193 NF2 VS cell line [4]; 20 μM,77.3±8.4%
same,cell death rate,HEI-193 NF2 VS cell line [4]; 50 μM,97.8±1.5%
same,"proliferation, of the non-treated cells",primary VS cells [2]; 5 μM,141.8%±95.2%
same,"proliferation, of the non-treated cells",primary VS cells [2]; 20 μM,23.0±20.9%
same,normalized proliferation rate,primary SCs [3]; 5 μM,85.3±25.7%
same,normalized proliferation rate,primary SCs [3]; 20 μM,31.0±18.3%
same,normalized proliferation rate,primary SCs [3]; 50 μM,3.14%
same,normalized proliferation rate,HEI-193 NF2 VS cell line [5]; 5 μM,95.0±1.6%
same,normalized proliferation rate,HEI-193 NF2 VS cell line [5]; 20 μM,0.4±0.4%
same,normalized proliferation rate,HEI-193 NF2 VS cell line [5]; 50 μM,2.3±2.3%
same,apoptosis / cell death rate,primary SCs [6]; 5 μM,1.3±0.3%
same,cell death rate,primary SCs [6]; 20 μM,1.7±0.4%
same,cell death rate,primary SCs [6]; 50 μM,52.2±14.9%
bevacizumab,patients with decrease in tumor size / volume,NF2 VSs,55%
same,patients with hearing improvement,NF2 VSs,57%

# Reference: US10010585B2, “Methods of treating vestibular schwannoma and reducing hearing or neurite loss caused by vestibular schwannoma” (Massachusetts Eye and Ear Infirmary, priority 2014, dated 2018)
